# In ChEMBL document CHEMBL2062415, “Steroids from Commiphora mukul display antiproliferative effect against human prostate cancer PC3 cells via induction of apoptosis” (Bioorg Med Chem Lett, 2012):
# Calls of active or inactive are those of the source. The rule behind the calls is not given here.
# Key:
# PC-3 [1] = test: Cell cycle arrest in human PC3 cells assessed as accumulation at S phase at 10 uM after 48 hrs by propidium iodide staining-based flow cytometric analysis relative to control; format: functional
# PC-3 [2] = test: Cytotoxicity against human PC3 cells after 24 hrs by MTT assay; format: functional, cell-based; conditions: PC-3, 24 h
# MCF7 [3] = test: Induction of apoptosis in human MCF7 cells assessed as accumulation at G0/G1 phase at 5 uM after 48 hrs by propidium iodide staining-based flow cytometric analysis (reference value: 67.46%); format: functional
# PC-3 [4] = test: Induction of apoptosis in human PC3 cells assessed as late apoptotic cells at 20 uM after 48 hrs by annexinV/propidium iodide staining-based FITC analysis relative to control; format: functional
# PC-3 [5] = test: Inhibition of cyclin A protein expression in human PC3 cells at 20 uM after 48 hrs by Western blot analysis; format: functional, cell-based
# PC-3 [6] = test: Induction of apoptosis in human PC3 cells assessed as late apoptotic cells at 10 uM after 48 hrs by annexinV/propidium iodide staining-based FITC analysis relative to control; format: functional
# K562 [7] = test: Induction of apoptosis in human K562 cells assessed as accumulation at G2/M phase at 10 uM after 48 hrs by propidium iodide staining-based flow cytometric analysis (reference value: 15.72%); format: functional
# DU-145 [8] = test: Induction of apoptosis in human DU145 cells assessed as necrotic cells at 20 uM after 48 hrs by annexinV/propidium iodide staining-based FITC analysis (reference value: 0.35%); format: functional
# MCF7 [9] = test: Induction of apoptosis in human MCF7 cells assessed as early apoptotic cells at 5 uM after 48 hrs by annexinV/propidium iodide staining-based FITC analysis (reference value: 5.48%); format: functional
# DU-145 [10] = test: Induction of apoptosis in human DU145 cells assessed as accumulation at G0/G1 phase at 40 uM after 48 hrs by propidium iodide staining-based flow cytometric analysis (reference value: 72.11%); format: functional
# MCF7 [11] = test: Induction of apoptosis in human MCF7 cells assessed as late apoptotic cells at 20 uM after 48 hrs by annexinV/propidium iodide staining-based FITC analysis (reference value: 3.57%); format: functional
# MCF7 [12] = test: Induction of apoptosis in human MCF7 cells assessed as necrotic cells at 20 uM after 48 hrs by annexinV/propidium iodide staining-based FITC analysis (reference value: 8.28%); format: functional
# DU-145 [13] = test: Cytotoxicity against human DU145 cells after 24 hrs by MTT assay; format: functional, cell-based; conditions: DU-145, 24 h
# MCF7 [14] = test: Induction of apoptosis in human MCF7 cells assessed as necrotic cells at 10 uM after 48 hrs by annexinV/propidium iodide staining-based FITC analysis (reference value: 8.28%); format: functional
# K562 [15] = test: Induction of apoptosis in human K562 cells assessed as accumulation at G0/G1 phase at 1 uM after 48 hrs by propidium iodide staining-based flow cytometric analysis (reference value: 38.61%); format: functional
structure (smiles),measurement,setting,value
CC[C@H](/C=C/[C@@H](C)[C@H]1CC[C@H]2[C@H]3[C@H]([C@H](O)C[C@]12C)[C@@]1(C)CC[C@H](O)CC1=C[C@H]3O)C(C)C,Activity,PC-3 [1],23.27%
same,IC50,PC-3 [2],10.9 µM
same,Activity,MCF7 [3],72.36%
same,Activity,PC-3 [4],42.21%
same,inhibition,PC-3 [5],Active
same,Activity,PC-3 [6],37.79%
same,Activity,K562 [7],12.11%
same,Activity,DU-145 [8],2.38%
same,Activity,MCF7 [9],6.72%
same,Activity,DU-145 [10],46.47%
same,Activity,MCF7 [11],6.76%
same,Activity,MCF7 [12],4.8%
same,IC50,DU-145 [13],16.6 µM
same,Activity,MCF7 [14],4.47%
same,Activity,K562 [15],41.16%
